Blank lines part the entries; values can stand above or below the compound they belong to.
Tests used:
Type in all cases: physicochemical
[1] = Storage of Form C at high humidities; conditions: stored at high humidities
Description: and is observed when Form C is stored at high humidities. […] The lot used to generate this X-ray powder diffraction and Raman data may contain residual compound IV Form C.

[2] = Hygroscopicity of crystalline forms; conditions: crystalline solid
[3] = Relative stability of crystalline forms, studies in dichloromethane, ethyl acetate, methanol and toluene; conditions: compound II
Protocol: Form B was obtained mainly from fast evaporations of ethyl acetate and methyl ethyl ketone, and from a solvent/antisolvent. […] Form A has a melting point of ˜177° C. and Form B has a melting point of ˜170° C.

formation of N-carboxyvarenicline adduct on storage [1]: observed
SMILES: c1cnc2cc3c(cc2n1)C1CNCC3C1 [Compound IV Form C]

hygroscopicity [2]: non-hygroscopic
SMILES: O=C(N1CC2CC(C1)c1cc3nccnc3cc12)C(F)(F)F [Compound III Form A, 6,10-Methano-6H-pyrazino[2,3-h][3]benzazepine,7,8,9,10-tetrahydro-8-(trifluoroacetyl)]

SMILES: O=C(N1CC2CC(C1)c1cc([N+](=O)[O-])c([N+](=O)[O-])cc12)C(F)(F)F [Compound II Form A, 1,5-Methano-1H-3-benzazepine-2,3,4,5-tetrahydro-7,8-dinitro-3-(trifluoroacetyl)]
hygroscopicity [2]: non-hygroscopic
relative stability of crystalline forms ([3]; ambient temperature and 60° C., dichloromethane, ethyl acetate, methanol, toluene): more stable than Form B

SMILES: O=C(N1CC2CC(C1)c1cc([N+](=O)[O-])c([N+](=O)[O-])cc12)C(F)(F)F [Compound II Form B, 1,5-Methano-1H-3-benzazepine-2,3,4,5-tetrahydro-7,8-dinitro-3-(trifluoroacetyl)]
form conversion upon heating ([3]; upon heating): converts to Form A upon heating

Source: patent US20100062046A1, “POLYMORPHS OF NICOTINIC INTERMEDIATES” (priority 2006, published 2010)
